According to patent US11415579B2, “Assay for measuring a rate of reaction between a target and a ligand candidate” (Imperial College Innovations Ltd., priority 2016, dated 2022):

What was measured:
[1] = target: T1, human cyclin-dependent kinase 2 (Cdk2) (Homo sapiens, UniProt P24941); test: Kinetic thiol consumption assay with wild type Cdk2 (C177); type: binding; set-up: key to Rate enhancement, Cdk2 WT: k(Cdk2) divided by k(model thiol); Rate constant with Cdk2 (k(Cdk2)): unit not given here; conditions: for Rate constant with Cdk2 (k(Cdk2)): 500 μM ligand, 5 μM thiol, phosphate buffer pH 8; for Rate enhancement, Cdk2 WT: no additional mutations; for Rate constant with Cdk2 WT: Protein: Cdk2, cysteine position WT, in h^-1; for k(Cdk2)/k(Cdk2_mut) rate enhancement: model thiol Cdk2[C177A, F80C, K278C]; for k(Cdk2)/k(GSH) rate enhancement: model thiol glutathione
T1 construct: poly-histidine; made in house; host or cells: E. coli
How it was run: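 Rate constants came from first-order exponential decay fits of normalized fluorescence against time, with thiol (5 μM) in degassed pH 8 phosphate buffer containing 2% v/v TCEP beads and reads after 1 h at room temperature.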

Cdk2(S276C) (C177A) = target: T2, Cdk2(S276C) (C177A) (Homo sapiens, UniProt P24941, C177A/S276C); test: Kinetic thiol consumption assay with Cdk2 mutant S276C; type: binding; set-up: key to Rate enhancement, Cdk2 S276C: rate constant with Cdk2 ÷ rate constant with model thiol (fold); conditions: additional mutation C177A; for Rate constant with Cdk2 S276C: Protein: Cdk2, cysteine position S276C, in h^-1
T2 construct: poly-histidine; made in house; host or cells: E. coli
How it was run: (§1)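 5 μM thiol, degassed phosphate pH 8, 2% v/v immobilized TCEP beads; 1 h RT; fluorescence ex 380/em 470 nm; normalized vs DMSO/thiol-only; first-order exponential decay fit → rate constant; Cdk2 k / model-thiol k = rate enhancement per acrylamide.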

Cdk2(C177A, F80C) = target: T3, Cdk2(C177A, F80C) (Homo sapiens, UniProt P24941, C177A/F80C); test: Kinetic thiol consumption assay with Cdk2 mutant F80C, incl. kobs versus concentration (Kd, k2); type: binding; set-up: key to Rate enhancement, Cdk2 F80C: Cdk2 rate constant divided by model-thiol rate constant; conditions: additional mutation C177A; for Rate constant with Cdk2 F80C: Protein: Cdk2, cysteine position F80C, in h^-1
T3 construct: poly-histidine; made in house; host or cells: E. coli
How it was run: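 His-tagged Cdk2(C177A/F80C) from E. coli or model thiol, 5 μM in degassed phosphate buffer pH 8 with TCEP beads, reacted with acrylamide ligands; fluorescence (ex/em 380/470 nm) normalized to DMSO control and fitted to first-order decay for kobs. Kd and k2 obtained from hyperbolic fit of kobs versus ligand concentration.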

Cdk2(R122C) (C177A) = target: T4, Cdk2(R122C) (C177A) (Homo sapiens, UniProt P24941, C177A/R122C); test: Kinetic thiol consumption assay with Cdk2 mutant R122C; type: binding; set-up: key to Rate enhancement, Cdk2 R122C: rate constant with Cdk2 ÷ rate constant with model thiol (fold); conditions: additional mutation C177A; for Rate constant with Cdk2 R122C: Protein: Cdk2, cysteine position R122C, in h-1
T4 construct: poly-histidine; made in house; host or cells: E. coli
How it was run: as §1

Cdk2(N272C) (C177A) = target: T5, Cdk2(N272C) (C177A) (Homo sapiens, UniProt P24941, C177A/N272C); test: Kinetic thiol consumption assay with Cdk2 mutant N272C; type: binding; set-up: key to Rate enhancement, Cdk2 N272: rate constant with Cdk2 ÷ rate constant with model thiol (fold); conditions: for Rate enhancement, Cdk2 N272: Cdk2 N272, additional mutation C177A; for Rate constant with Cdk2 N272C: Protein: Cdk2, cysteine position N272C, additional mutation C177A, in h^-1
T5 construct: poly-histidine; made in house; host or cells: E. coli
How it was run: as §1

[2] = Kinetic thiol consumption assay with model thiol glutathione; type: physicochemical; set-up: Rate constant with glutathione (k(GSH)): unit not given here; conditions: for Rate constant with glutathione (k(GSH)): 500 μM ligand, 5 μM thiol, phosphate buffer pH 8; for Rate constant with Glutathione: Protein: Glutathione, cysteine position NA, in h-1
How it was run: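 Rate constants for acrylamide reaction with 5 μM glutathione come from first-order exponential fits of normalized fluorescence decay (ex 380, em 470 nm). Reactions run in degassed phosphate buffer at pH 8 containing TCEP beads, room temperature.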

Cdk2[C177A, F80C, K278C] = target: T6, Cdk2[C177A, F80C, K278C] (Homo sapiens, UniProt P24941, C177A/F80C/K278C); test: Kinetic thiol consumption assay with mutant Cdk2 as model thiol; type: binding; set-up: unit not given here; conditions: 500 μM ligand, 5 μM thiol, phosphate buffer pH 8
T6 construct: poly-histidine; made in house; host or cells: E. coli
How it was run: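 Model thiol: His-tagged human Cdk2 C177A/F80C/K278C (two engineered surface cysteines), E. coli-expressed, 5 μM in degassed phosphate buffer pH 8 with immobilized TCEP beads (2% v/v). Fluorescence (ex/em 380/470 nm) followed over time at room temperature, normalized to DMSO/thiol control. First-order decay fit gives rate constants.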

Cdk2(H71C) (C177A) = target: T7, Cdk2(H71C) (C177A) (Homo sapiens, UniProt P24941, C177A/H71C); test: Kinetic thiol consumption assay with Cdk2 mutant H71C; type: binding; set-up: key to Rate enhancement, Cdk2 H71C: rate constant with Cdk2 ÷ rate constant with model thiol (fold); conditions: additional mutation C177A; for Rate constant with Cdk2 H71C: Protein: Cdk2, cysteine position H71C, in h^-1
T7 construct: poly-histidine; made in house; host or cells: E. coli
How it was run: as §1

Cdk2(S181C) (C177A) = target: T8, Cdk2(S181C) (C177A) (Homo sapiens, UniProt P24941, C177A/S181C); test: Kinetic thiol consumption assay with Cdk2 mutant S181C; type: binding; set-up: key to Rate enhancement, Cdk2 S181C: rate constant with Cdk2 ÷ rate constant with model thiol (fold); conditions: additional mutation C177A; for Rate constant with Cdk2 S181C: Protein: Cdk2, cysteine position S181C, in h^-1
T8 construct: poly-histidine; made in house; host or cells: E. coli
How it was run: as §1

Cdk2(T182C) (C177A) = target: T9, Cdk2(T182C) (C177A) (Homo sapiens, UniProt P24941, C177A/T182C); test: Kinetic thiol consumption assay with Cdk2 mutant T182C; type: binding; set-up: key to Rate enhancement, Cdk2 T182C: rate constant with Cdk2 ÷ rate constant with model thiol (fold); conditions: additional mutation C177A; for Rate constant with Cdk2 T182C: Protein: Cdk2, cysteine position T182C, in h^-1
T9 construct: poly-histidine; made in house; host or cells: E. coli
How it was run: as §1

Rate constant with Cdk2 (k(Cdk2)) [1]	Rate enhancement, Cdk2 WT [1]	Rate constant with Cdk2 WT [1]	k(Cdk2)/k(Cdk2_mut) rate enhancement [1]	k(Cdk2)/k(GSH) rate enhancement [1]	Rate enhancement, Cdk2 S276C (Cdk2(S276C) (C177A))	Rate constant with Cdk2 S276C (Cdk2(S276C) (C177A))	Rate enhancement, Cdk2 F80C (Cdk2(C177A, F80C))	Rate constant with Cdk2 F80C (Cdk2(C177A, F80C))	Rate enhancement, Cdk2 R122C (Cdk2(R122C) (C177A))	Rate constant with Cdk2 R122C (Cdk2(R122C) (C177A))	Rate enhancement, Cdk2 N272 (Cdk2(N272C) (C177A))	Rate constant with Cdk2 N272C (Cdk2(N272C) (C177A))	Rate constant with Cdk2[C177A, F80C, K278C] (k(Cdk2_mut)) (Cdk2[C177A, F80C, K278C])	Rate enhancement, Cdk2 H71C (Cdk2(H71C) (C177A))	Rate constant with Cdk2 H71C (Cdk2(H71C) (C177A))	Rate enhancement, Cdk2 S181C (Cdk2(S181C) (C177A))	Rate constant with Cdk2 S181C (Cdk2(S181C) (C177A))	Structure (SMILES)	Rate constant with glutathione (k(GSH)) [2]	Rate constant with Glutathione [2]	further results
0.00612	1.186	0.007039	1.055	1.009	2.027	0.01203	0.816	0.004844	0.7476	0.004438	0.326	0.001935	0.0058	0.6643	0.003943	0.9565	0.005678	C=CC(=O)N1CCC(c2nc3ccccc3[nH]2)CC1 [EL-1152]	0.00606	0.005936	Rate enhancement, Cdk2 T182C (Cdk2(T182C) (C177A)): 3.834; Rate constant with Cdk2 T182C (Cdk2(T182C) (C177A)): 0.02276
0.00596	0.6935	0.00921	1.774	0.9394	0.4007	0.005321	0.4424	0.005875	0.1436	0.001907	0.5301	0.00704	0.00336	0.4465	0.005929	0.2887	0.003834	C=CC(=O)N1CCCC(C(=O)OCC)C1 (stereo not shown) [EL-1187]	0.00634	0.01328	Rate enhancement, Cdk2 T182C (Cdk2(T182C) (C177A)): 4.397; Rate constant with Cdk2 T182C (Cdk2(T182C) (C177A)): 0.05839
0.00376	0.574	0.003762	0.4353	0.5564	0.8088	0.005301	2.859	0.01874	0.5841	0.003828	0.4193	0.002748	0.00864	1.823	0.01195	0.8531	0.005591	C=CC(=O)N1CCN(Cc2ccc(Cl)cc2)CC1 [EL-1183]	0.00676	0.006554	Rate enhancement, Cdk2 T182C (Cdk2(T182C) (C177A)): 2.26; Rate constant with Cdk2 T182C (Cdk2(T182C) (C177A)): 0.01481
0.0716	2.701	0.0716	0.7607	2.77	1.606	0.04258	2.139	0.05671	1.176	0.03118	2.885	0.07649	0.09413	1.636	0.04338	1.069	0.02834	C=CC(=O)Nc1cccc(-c2nnnn2C2CC2)c1 [CA-057]	0.02585	0.02651	Rate enhancement, Cdk2 T182C (Cdk2(T182C) (C177A)): 18.51; Rate constant with Cdk2 T182C (Cdk2(T182C) (C177A)): 0.4908
